{"source": "ChEMBL document CHEMBL1201862", "about": "“PubChem BioAssay data set” (2004)", "key": {"[1]": {"biological_target": "COUP transcription factor 2 (Homo sapiens, UniProt P24468)", "sequence (P24468 whole entry)": "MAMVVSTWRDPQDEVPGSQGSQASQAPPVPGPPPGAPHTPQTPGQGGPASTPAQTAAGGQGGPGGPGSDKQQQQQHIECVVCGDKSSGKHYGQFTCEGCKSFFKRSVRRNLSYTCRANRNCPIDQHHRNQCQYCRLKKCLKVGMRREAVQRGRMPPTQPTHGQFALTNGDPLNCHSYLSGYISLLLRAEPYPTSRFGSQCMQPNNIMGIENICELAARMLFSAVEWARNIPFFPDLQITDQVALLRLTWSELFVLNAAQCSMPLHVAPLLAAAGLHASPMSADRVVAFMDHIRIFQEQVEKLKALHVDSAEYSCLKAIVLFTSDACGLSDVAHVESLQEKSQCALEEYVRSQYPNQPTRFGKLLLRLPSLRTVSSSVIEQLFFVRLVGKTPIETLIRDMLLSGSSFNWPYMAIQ", "assay": "Luminescence-based cell-based high throughput dose response assay to identify inhibitors of COUP-TFII (NR2F2).", "assay_type": "functional"}, "[2]": {"assay": "A549 cell cytotoxicity, dose response, cytotoxicity control, plate reader, cherry-pick, antagonist series (AID 743412)", "assay_type": "functional, cell-based"}, "[3]": {"assay": "HepG2 cell cytotoxicity, dose response, cytotoxicity control, plate reader, cherry-pick, antagonist series (AID 743416)", "assay_type": "functional, cell-based"}, "[4]": {"assay": "LGR2 antagonists, dose response, cell-based, HEK293, CRE-luciferase reporter, cherry pick, set 2 (AID 743343);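 also: transfected cells were stimulated with diluted bursicon conditioned medium after compound addition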", "assay_type": "functional"}, "[5]": {"assay": "MC4R antagonists, dose response, counter-screen for LGR2 antagonist project, cell-based, plate reader, cherry pick (AID 743444);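 also: transfected HEK 293 cells stimulated with alpha-MSH peptide; potency of inhibitors of the alpha-MSH evoked signal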", "assay_type": "functional"}, "[6]": {"assay": "HEK293 cell cytotoxicity, dose response, cytotoxicity control, plate reader, cherry-picked samples (AID 743446)", "assay_type": "functional, cell-based"}, "[7]": {"biological_target": "NAD-dependent protein deacylase sirtuin-5, mitochondrial (Homo sapiens, UniProt Q9NXA8)", "sequence (Q9NXA8 whole entry)": "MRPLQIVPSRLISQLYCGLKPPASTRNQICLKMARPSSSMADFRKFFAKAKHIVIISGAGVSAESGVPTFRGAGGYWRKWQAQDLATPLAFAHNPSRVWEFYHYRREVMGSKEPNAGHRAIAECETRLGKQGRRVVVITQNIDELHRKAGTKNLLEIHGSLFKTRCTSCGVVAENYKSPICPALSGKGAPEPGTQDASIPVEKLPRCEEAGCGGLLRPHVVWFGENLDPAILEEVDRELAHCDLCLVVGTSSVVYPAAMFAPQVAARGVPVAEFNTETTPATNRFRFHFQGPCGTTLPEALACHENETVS", "assay": "SIRT5 desuccinylase inhibitors, dose response, biochemical, fluorescence imaging, cherry-pick, set 5 (AID 720591);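 also: desuccinylation of succinyl peptide AMC substrate read as fluorescence after trypsin release; potency of inhibitors that lower fluorescence and may act on trypsin instead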"}, "Paired box protein Pax-8": {"biological_target": "Paired box protein Pax-8 (Homo sapiens, UniProt Q06710)", "sequence (Q06710 whole entry)": "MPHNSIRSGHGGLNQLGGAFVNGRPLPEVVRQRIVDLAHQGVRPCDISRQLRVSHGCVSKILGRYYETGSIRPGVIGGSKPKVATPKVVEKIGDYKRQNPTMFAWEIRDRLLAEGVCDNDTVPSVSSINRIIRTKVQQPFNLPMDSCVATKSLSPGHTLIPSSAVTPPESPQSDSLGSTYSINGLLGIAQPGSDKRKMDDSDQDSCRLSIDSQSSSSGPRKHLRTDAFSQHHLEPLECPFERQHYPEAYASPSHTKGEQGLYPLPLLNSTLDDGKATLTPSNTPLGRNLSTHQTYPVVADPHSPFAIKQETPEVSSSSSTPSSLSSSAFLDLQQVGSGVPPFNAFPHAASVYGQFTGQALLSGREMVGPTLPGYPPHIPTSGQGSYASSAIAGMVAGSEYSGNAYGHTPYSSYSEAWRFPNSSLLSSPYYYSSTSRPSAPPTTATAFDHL", "assay": "inhibitors of PAX8-driven TPO luciferase reporter, dose response, RMG-I cells, cherry-pick (AID 687027);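 also: luciferase reporter driven by Pax8 target thyroperoxidase promoter measured by SteadyGlo luminescence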", "assay_type": "functional, cell-based"}, "[8]": {"assay": "A2780 ovarian cancer cell cytotoxicity, dose response, cytotoxicity control, plate reader, dry powder samples (AID 743046)", "assay_type": "functional, cell-based"}, "[9]": {"assay": "NIH:OVCAR-3 ovarian cancer cell cytotoxicity, dose response, PAX8 inhibitor project, plate reader, dry powder samples (AID 743044)", "assay_type": "functional, cell-based"}, "[10]": {"assay": "Concentration-dependent survival of SW480 colon cancer line, luminescence detection with CellTiter-Glo, half-maximal inhibitory concentration (AID 1117338)", "assay_type": "functional"}, "[11]": {"assay": "RKO cell viability reduction, dose response, CellTiter-Glo luminescence (AID 1117322)", "assay_type": "functional"}, "[12]": {"assay": "cytotoxicity toward HCT116 cells – cell-based, CellTiter-Glo luminescence, IC50, dose response (AID 1117332)", "assay_type": "functional", "settings": "HCT-116"}, "[13]": {"assay": "SNU-C1 cell viability reduction, dose response, CellTiter-Glo luminescence (AID 1117323)", "assay_type": "functional, cell-based"}, "[14]": {"assay": "cytotoxicity toward Colo320 cells – cell-based, CellTiter-Glo luminescence, IC50, dose response (AID 1117334)", "assay_type": "functional", "settings": "COLO 320"}, "[15]": {"assay": "cytotoxicity toward HT-29 cells – cell-based, CellTiter-Glo luminescence, IC50, dose response (AID 1117330)", "assay_type": "functional"}, "[16]": {"assay": "CellTiter-Glo luminescent dose response of DLD-1 viability loss (AID 1117352)", "assay_type": "functional"}, "[17]": {"assay": "HeLa 2N DNA content increase, dose response, cell-based, IC50 (AID 1117349)", "assay_type": "functional"}, "[18]": {"assay": "HeLa 4N DNA content increase, dose response, cell-based, IC50 (AID 1117351)", "assay_type": "functional"}}, "note": "Where a name gives a salt, the structure may show the parent alone. Activity calls are given as the source filed them.", "data": [{"compound": "COc1ccc(-n2nnnc2C(c2cc3ccccc3o2)N2CCC(n3c(O)nc4ccccc43)CC2)cc1", "note": "(centres undefined)", "values": [{"measurement": "IC50", "setting": "[1]", "value": "6.4 µM (active)"}, {"measurement": "AC50", "setting": "[2]", "value": "38.9 µM (active)"}, {"measurement": "AC50", "setting": "[3]", "value": "4.45 µM (active)"}, {"measurement": "AC50", "setting": "[4]", "value": "13.7 µM (active)"}, {"measurement": "AC50", "setting": "[5]", "value": "14.3 µM (active)"}, {"measurement": "AC50", "setting": "[6]", "value": "8.29 µM (active)"}]}, {"compound": "COc1cc(Nc2ncc3c(n2)CCN(C(=O)Nc2ccc(C(C)C)cc2)C3)cc(OC)c1OC", "values": [{"measurement": "AC50", "setting": "[7]", "value": "17 µM (active)"}]}, {"compound": "C[C@@H]1CN([C@H](C)CO)C(=O)c2cc(NS(=O)(=O)c3ccc(Cl)cc3)ccc2O[C@@H](C)CCCCO[C@@H]1CN(C)Cc1ccc(Cl)c(Cl)c1", "values": [{"measurement": "AC50", "setting": "Paired box protein Pax-8", "value": "11.7 µM (active)"}, {"measurement": "AC50", "setting": "[8]", "value": "2.73 µM (active)"}, {"measurement": "AC50", "setting": "[9]", "value": "49.5 µM (active)"}]}, {"compound": "CC=CC1=C(C(=O)O)N2C(=O)[C@@H](NC(=O)[C@H](N)c3ccc(O)cc3)[C@H]2SC1", "values": [{"measurement": "IC50", "setting": "[10]", "value": "> 20 µM (inactive)"}, {"measurement": "IC50", "setting": "[11]", "value": "> 20 µM (inactive)"}, {"measurement": "IC50", "setting": "[12]", "value": "> 20 µM (inactive)"}, {"measurement": "IC50", "setting": "[13]", "value": "> 20 µM (inactive)"}, {"measurement": "IC50", "setting": "[14]", "value": "> 20 µM (inactive)"}, {"measurement": "IC50", "setting": "[15]", "value": "> 20 µM (inactive)"}, {"measurement": "IC50", "setting": "[16]", "value": "> 20 µM (inactive)"}]}, {"compound": "CN1CC[C@H](c2c(O)cc(O)c3c(=O)cc(-c4ccccc4Cl)oc23)[C@H](O)C1", "note": "[ALVOCIDIB HYDROCHLORIDE]", "values": [{"measurement": "IC50", "setting": "[17]", "value": "> 10 µM (inactive)"}, {"measurement": "IC50", "setting": "[18]", "value": "> 10 µM (inactive)"}]}]}
